We go through eleven compounds from ChEMBL document CHEMBL1133326, “Alpha-ketoamides, alpha-ketoesters and alpha-diketones as HCV NS3 protease inhibitors” (Bioorg Med Chem Lett, 2000).

The IC50 is the concentration at which inhibition is half-maximal.

The test deals with NS3 (Hepatitis C virus, UniProt A3EZJ3). In words: Inhibition against hepatitis C virus protease NS3 activity. Set-up: species or system Hepacivirus hominis.

*1 amine or outer side, *2 acyl side, *3 side chain or, on linkers, in order; H or OH if unused. Where a SMILES comes first, the peptide text is derived from it. [ ]: non-standard residue; d: D form. The star is where a group is joined. Abu(ψCOCO) = CC[C@H](N[*:1])C(=O)C(=O)[*:2]; Boc = CC(C)(C)OC(=O)*; OtBu = CC(C)(C)O*; NHAllyl = C=CCN*

NS3, sequence (A3EZJ3 whole entry): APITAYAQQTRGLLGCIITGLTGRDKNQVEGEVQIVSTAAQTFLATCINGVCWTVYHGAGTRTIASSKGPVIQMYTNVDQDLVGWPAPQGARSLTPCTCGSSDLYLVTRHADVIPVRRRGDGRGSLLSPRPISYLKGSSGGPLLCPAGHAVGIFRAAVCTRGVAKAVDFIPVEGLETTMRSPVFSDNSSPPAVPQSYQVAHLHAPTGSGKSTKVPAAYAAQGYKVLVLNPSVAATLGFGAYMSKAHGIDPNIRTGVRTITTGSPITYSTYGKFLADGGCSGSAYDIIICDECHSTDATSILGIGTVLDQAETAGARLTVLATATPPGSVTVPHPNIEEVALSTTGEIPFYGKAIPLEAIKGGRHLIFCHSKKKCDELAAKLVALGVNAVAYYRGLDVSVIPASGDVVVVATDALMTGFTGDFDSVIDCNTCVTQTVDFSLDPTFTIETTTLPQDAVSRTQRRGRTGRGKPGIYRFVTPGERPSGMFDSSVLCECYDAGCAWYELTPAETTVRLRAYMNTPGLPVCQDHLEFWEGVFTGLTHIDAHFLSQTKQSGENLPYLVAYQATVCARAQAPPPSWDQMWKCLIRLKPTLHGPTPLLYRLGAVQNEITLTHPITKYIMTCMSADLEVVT

`C=CCC(NC(=O)[C@H]1CCCN1C(=O)[C@@H](NC(=O)[C@@H](NC(=O)[C@H](CCC(=O)O)NC(=O)[C@@H](N)CC(=O)O)C(C)C)C(C)C)C(=O)C(=O)CC(C)C` (stereo partly specified) registered an IC50 of 4.8 µM. For `C=CCC(NC(=O)[C@H]1CCCN1C(=O)[C@@H](NC(=O)[C@@H](NC(=O)[C@H](CCC(=O)OC(C)(C)C)NC(=O)[C@H](CC(=O)OC(C)(C)C)NC(=O)OC(C)(C)C)C(C)C)C(C)C)C(=O)C(=O)OC` (stereo partly specified) the value was above 30 µM.

Regarding `C=CCC(NC(=O)[C@H]1CCCN1C(=O)[C@@H](NC(=O)[C@@H](NC(=O)[C@H](CCC(=O)O)NC(=O)[C@@H](N)CC(=O)O)C(C)C)C(C)C)C(=O)C(=O)NCC` (stereo partly specified), the IC50 is 0.35 µM. For `C=CCC(NC(=O)[C@H]1CCCN1C(=O)[C@@H](NC(=O)[C@@H](NC(=O)[C@H](CCC(=O)O)NC(=O)[C@@H](N)CC(=O)O)C(C)C)C(C)C)C(=O)C(=O)OC` (stereo partly specified) the value was 4.34 µM; for `C=CCC(NC(=O)[C@H]1CCCN1C(=O)[C@@H](NC(=O)[C@@H](NC(=O)[C@H](CCC(=O)O)NC(=O)[C@@H](N)CC(=O)O)C(C)C)C(C)C)C(=O)C(=O)C1CC=CCC1` (stereo partly specified), 4.23 µM.

Consider `C=CCC(NC(=O)[C@H]1CCCN1C(=O)[C@@H](NC(=O)[C@@H](NC(=O)[C@H](CCC(=O)OC(C)(C)C)NC(=O)[C@H](CC(=O)OC(C)(C)C)NC(=O)OC(C)(C)C)C(C)C)C(C)C)C(=O)C(=O)CC(C)C` (stereo partly specified), for which the 50% inhibitory concentration (IC50) is above 30 µM.

In turn, `C=CCNC(=O)C(=O)C(CC=C)NC(=O)[C@H]1CCCN1C(=O)[C@@H](NC(=O)[C@@H](NC(=O)[C@H](CCC(=O)OC(C)(C)C)NC(=O)[C@H](CC(=O)OC(C)(C)C)NC(=O)OC(C)(C)C)C(C)C)C(C)C` (stereo partly specified) yielded an IC50 of 0.57 µM.

`C=CCNC(=O)C(=O)C(CC=C)NC(=O)[C@H]1CCCN1C(=O)[C@@H](NC(=O)[C@@H](NC(=O)[C@H](CCC(=O)O)NC(=O)[C@@H](N)CC(=O)O)C(C)C)C(C)C` (stereo partly specified) displayed an IC50 of 0.34 µM. Compound `C=CCNC(=O)C(=O)[C@H](CC)NC(=O)[C@@H]1CCCN1C(=O)[C@@H](NC(=O)[C@@H](NC(=O)[C@H](CCC(=O)OC(C)(C)C)NC(=O)[C@H](CC(=O)OC(C)(C)C)NC(=O)OC(C)(C)C)C(C)C)C(C)C` (Boc-D(OtBu)E(OtBu)VVP[Abu(ψCOCO)]-NHAllyl) showed an IC50 of 0.84 µM. For `C=CCNC(=O)C(=O)[C@H](CC)NC(=O)[C@@H]1CCCN1C(=O)[C@@H](NC(=O)[C@@H](NC(=O)[C@H](CCC(=O)O)NC(=O)[C@@H](N)CC(=O)O)C(C)C)C(C)C` (H-DEVVP[Abu(ψCOCO)]-NHAllyl) the value was 0.42 µM; for Ac-DEVVPC-OH, 2.5 µM.
